Measurements published in ChEMBL document CHEMBL1949662, “JBIR-94 and JBIR-125, antioxidative phenolic compounds from Streptomyces sp. R56-07” (J Nat Prod, 2012).

tested on: Radical scavenging activity; test: Antioxidant activity assessed as DPPH free radical scavenging activity after 30 mins; type: functional

Point of comparison: `Cc1c(C)c2c(c(C)c1O)CC[C@@](C)(CCC[C@H](C)CCC[C@H](C)CCCC(C)C)O2` [ALPHA-TOCOPHEROL], IC50 9 µM. Against it:
- COc1cc(CCC(=O)NCCCCNC(=O)CCc2ccc(O)c(OC)c2)ccc1O — within 1.5-fold, 11.4 µM
- CC(=O)NCCCCN(CCCNC(=O)CCc1ccc(O)cc1)C(=O)CCc1ccc(O)cc1 — 3.9-fold higher, 35.1 µM
